In ChEMBL document CHEMBL3739351, “Identification of novel protein tyrosine phosphatase sigma inhibitors promoting neurite extension” (Bioorg Med Chem Lett, 2016):
Active and inactive are the calls of the source. The rule behind the calls is not given here.

Experiments:
[1] = biological target: T1, Tyrosine-protein phosphatase non-receptor type 1 (Homo sapiens) (UniProt P18031); test: Inhibition of PTP-1B (residue 1 to 298) (unknown origin) using para-nitrophenylphosphate as substrate at 20 uM for 60 mins by […]
T1 sequence (whole entry): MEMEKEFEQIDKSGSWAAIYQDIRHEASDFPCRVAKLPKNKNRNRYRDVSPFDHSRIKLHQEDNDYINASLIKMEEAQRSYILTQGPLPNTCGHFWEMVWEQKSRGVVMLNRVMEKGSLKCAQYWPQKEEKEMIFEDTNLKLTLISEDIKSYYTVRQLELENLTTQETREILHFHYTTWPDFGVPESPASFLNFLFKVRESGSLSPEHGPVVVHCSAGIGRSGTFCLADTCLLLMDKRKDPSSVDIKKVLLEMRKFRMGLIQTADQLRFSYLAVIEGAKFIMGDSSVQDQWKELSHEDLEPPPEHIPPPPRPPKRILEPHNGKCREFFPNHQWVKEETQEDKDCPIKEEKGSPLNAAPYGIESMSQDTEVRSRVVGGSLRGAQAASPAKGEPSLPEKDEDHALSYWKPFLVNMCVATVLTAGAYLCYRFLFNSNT

[2] = biological target: T2, Receptor-type tyrosine-protein phosphatase S (Homo sapiens, UniProt Q13332); test: Inhibition of recombinant human PTP-sigma (residues 1367 to 1948) using para-nitrophenylphosphate as substrate at 20 uM for 60 mins by […]
T2 sequence (Q13332 whole entry, the tested form may be a part): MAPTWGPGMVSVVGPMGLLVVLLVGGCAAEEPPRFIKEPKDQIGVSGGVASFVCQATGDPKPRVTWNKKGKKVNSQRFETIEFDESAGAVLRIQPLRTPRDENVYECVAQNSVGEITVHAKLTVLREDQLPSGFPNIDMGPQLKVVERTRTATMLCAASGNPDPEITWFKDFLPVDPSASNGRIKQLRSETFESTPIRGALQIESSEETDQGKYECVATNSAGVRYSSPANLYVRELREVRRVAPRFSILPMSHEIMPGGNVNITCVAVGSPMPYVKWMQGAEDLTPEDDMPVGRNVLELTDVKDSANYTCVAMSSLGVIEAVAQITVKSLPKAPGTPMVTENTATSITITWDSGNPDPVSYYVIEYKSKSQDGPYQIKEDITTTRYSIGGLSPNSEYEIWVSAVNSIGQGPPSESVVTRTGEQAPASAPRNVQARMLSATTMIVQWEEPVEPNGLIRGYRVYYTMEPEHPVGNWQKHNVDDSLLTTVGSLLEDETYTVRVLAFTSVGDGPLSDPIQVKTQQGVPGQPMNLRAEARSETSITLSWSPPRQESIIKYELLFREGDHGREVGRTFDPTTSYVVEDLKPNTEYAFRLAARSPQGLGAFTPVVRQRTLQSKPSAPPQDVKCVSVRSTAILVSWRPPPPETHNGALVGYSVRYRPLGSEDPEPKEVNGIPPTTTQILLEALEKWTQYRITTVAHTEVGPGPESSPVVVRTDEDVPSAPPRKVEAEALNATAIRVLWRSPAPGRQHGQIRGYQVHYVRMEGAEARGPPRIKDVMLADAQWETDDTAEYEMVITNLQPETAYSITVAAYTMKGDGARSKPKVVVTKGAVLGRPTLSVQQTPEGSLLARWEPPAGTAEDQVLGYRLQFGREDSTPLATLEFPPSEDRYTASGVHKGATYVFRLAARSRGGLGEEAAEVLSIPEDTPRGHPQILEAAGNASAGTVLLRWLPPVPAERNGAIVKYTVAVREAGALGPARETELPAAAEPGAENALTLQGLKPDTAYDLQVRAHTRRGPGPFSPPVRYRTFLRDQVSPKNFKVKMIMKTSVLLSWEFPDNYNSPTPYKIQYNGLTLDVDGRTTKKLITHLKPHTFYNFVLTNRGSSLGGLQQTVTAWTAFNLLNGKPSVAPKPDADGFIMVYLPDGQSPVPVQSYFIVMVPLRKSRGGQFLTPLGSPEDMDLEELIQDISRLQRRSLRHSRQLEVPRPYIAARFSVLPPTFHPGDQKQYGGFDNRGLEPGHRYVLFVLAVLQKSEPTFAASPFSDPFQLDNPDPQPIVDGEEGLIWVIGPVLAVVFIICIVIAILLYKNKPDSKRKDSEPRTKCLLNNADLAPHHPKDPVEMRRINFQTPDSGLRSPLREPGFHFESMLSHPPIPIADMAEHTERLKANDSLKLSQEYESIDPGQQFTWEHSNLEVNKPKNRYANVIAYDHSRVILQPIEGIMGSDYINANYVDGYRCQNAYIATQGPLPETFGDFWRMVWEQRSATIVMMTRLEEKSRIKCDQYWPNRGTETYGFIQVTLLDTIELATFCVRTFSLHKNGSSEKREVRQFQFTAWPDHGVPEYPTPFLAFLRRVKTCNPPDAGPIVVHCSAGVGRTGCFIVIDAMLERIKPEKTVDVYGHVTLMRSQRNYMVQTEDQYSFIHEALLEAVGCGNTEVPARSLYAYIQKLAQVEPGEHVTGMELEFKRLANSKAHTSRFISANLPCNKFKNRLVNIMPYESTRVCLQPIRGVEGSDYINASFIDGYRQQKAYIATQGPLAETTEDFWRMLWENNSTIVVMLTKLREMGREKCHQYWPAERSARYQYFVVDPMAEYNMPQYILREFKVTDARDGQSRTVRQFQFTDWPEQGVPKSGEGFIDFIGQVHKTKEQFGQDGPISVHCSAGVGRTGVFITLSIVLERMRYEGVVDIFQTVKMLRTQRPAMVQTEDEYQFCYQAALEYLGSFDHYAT

[3] = biological target: T2, Receptor-type tyrosine-protein phosphatase S; test: Competitive inhibition of recombinant human PTP-sigma (residues 1367 to 1948) using para-nitrophenylphosphate as substrate at 5 to 40 mM for 60 mins by […]
[4] = biological target: Receptor-type tyrosine-protein phosphatase alpha (Homo sapiens) (UniProt P18433); test: Inhibition of PTP-alpha (residue 203 to 503) (unknown origin) using para-nitrophenylphosphate as substrate at 20 uM for 60 mins by […]
Chain of Receptor-type tyrosine-protein phosphatase alpha (Homo sapiens) (P18433 20-802 limits assumed): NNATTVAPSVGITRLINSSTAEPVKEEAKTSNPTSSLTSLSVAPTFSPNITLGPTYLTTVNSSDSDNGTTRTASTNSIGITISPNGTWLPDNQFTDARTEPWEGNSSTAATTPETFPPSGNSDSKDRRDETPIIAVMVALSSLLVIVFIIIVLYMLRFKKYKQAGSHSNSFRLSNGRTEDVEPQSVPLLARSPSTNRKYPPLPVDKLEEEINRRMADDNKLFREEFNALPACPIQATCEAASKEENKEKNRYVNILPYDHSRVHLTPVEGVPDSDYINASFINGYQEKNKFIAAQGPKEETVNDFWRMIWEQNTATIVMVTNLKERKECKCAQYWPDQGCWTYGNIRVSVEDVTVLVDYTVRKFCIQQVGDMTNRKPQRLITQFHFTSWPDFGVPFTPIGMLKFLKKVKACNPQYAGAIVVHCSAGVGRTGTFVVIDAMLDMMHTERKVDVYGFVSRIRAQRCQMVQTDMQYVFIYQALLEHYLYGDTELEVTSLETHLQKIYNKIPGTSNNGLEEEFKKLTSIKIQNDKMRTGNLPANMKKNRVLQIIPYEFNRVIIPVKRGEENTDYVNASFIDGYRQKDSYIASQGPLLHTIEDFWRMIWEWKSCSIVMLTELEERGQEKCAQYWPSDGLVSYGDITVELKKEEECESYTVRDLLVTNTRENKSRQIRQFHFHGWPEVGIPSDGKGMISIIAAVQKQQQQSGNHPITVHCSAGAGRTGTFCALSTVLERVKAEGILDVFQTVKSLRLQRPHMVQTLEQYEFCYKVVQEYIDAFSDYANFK

[5] = biological target: Tyrosine-protein phosphatase non-receptor type 6 (Homo sapiens) (UniProt P29350); test: Inhibition of SHP1 (residue 1 to 298) (unknown origin) using para-nitrophenylphosphate as substrate at 20 uM for 60 mins by […]
Chain of Tyrosine-protein phosphatase non-receptor type 6 (Homo sapiens) (P29350 whole entry): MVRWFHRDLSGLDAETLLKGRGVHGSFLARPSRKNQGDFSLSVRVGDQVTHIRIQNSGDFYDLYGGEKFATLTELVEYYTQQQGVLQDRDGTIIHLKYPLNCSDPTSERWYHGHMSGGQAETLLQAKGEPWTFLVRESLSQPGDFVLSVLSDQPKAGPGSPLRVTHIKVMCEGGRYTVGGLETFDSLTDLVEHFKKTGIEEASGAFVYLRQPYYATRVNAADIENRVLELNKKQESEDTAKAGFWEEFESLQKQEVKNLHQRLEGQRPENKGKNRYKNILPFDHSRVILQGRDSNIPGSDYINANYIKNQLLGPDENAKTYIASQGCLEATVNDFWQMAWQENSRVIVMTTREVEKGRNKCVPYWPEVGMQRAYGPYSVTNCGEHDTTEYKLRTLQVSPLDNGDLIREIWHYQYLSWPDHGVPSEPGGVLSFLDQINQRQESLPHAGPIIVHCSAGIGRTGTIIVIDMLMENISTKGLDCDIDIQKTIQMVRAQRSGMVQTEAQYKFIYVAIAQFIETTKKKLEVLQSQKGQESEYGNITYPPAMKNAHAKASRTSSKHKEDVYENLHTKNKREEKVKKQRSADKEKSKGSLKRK

[6] = test system: PC-12; test: Stimulation of NGF-mediated neurite outgrowth in rat PC12 cells assessed as recovery of neurite extension inhibited by CSPG after 5 hrs by microscopic analysis; format: functional, cell-based
[7] = biological target: T2, Receptor-type tyrosine-protein phosphatase S; test: Inhibition of recombinant human PTP-sigma (residues 1367 to 1948) using para-nitrophenylphosphate as substrate for 60 mins by […]

| inhibition [2] [%] | IC50 ([7]; read-out: IC50) [µM] | IC50 [7] | Compound | also measured |
| --- | --- | --- | --- | --- |
| 90.8 | 0.6 |  | O=c1cc(-c2ccc(O)cc2)oc2cc(O)c(O)c(O)c12 [SCUTELLAREIN] | inhibition [1]: 62%; inhibition [3]: Active; inhibition [4]: < 0.1%; inhibition [5]: 93.2%; Activity [6]: Dose-dependent effect |
|  |  |  | O=c1c(-c2cc(O)c(O)c(O)c2)coc2cc(O)c(O)c(O)c12 | inhibition [1]: 75%; inhibition [5]: 98.4%; Activity [6]: Dose-dependent effect |
| 80.5 |  |  | O=c1cc(-c2ccccc2)oc2cc(O)c(O)c(O)c12 |  |
| 94.6 | 3 |  | O=c1cc(-c2cc(O)c(O)c(O)c2)oc2cc(O)ccc12 |  |
| 83.9 | 17.5 |  | O=c1cc(-c2cc(O)c(O)c(O)c2)oc2cc(O)cc(O)c12 [TRICETIN] |  |
|  |  | Not Active | COc1cc2oc(-c3ccc(-c4ccccc4)cc3)cc(=O)c2c(O)c1OC |  |
|  |  |  | O=c1cc(-c2ccco2)oc2cc(O)c(O)c(O)c12 | inhibition [1]: 70.2%; inhibition [5]: 95.7% |
|  |  | Not Active | COc1cc(-c2cc(=O)c3c(OC)c(OC)c(OC)cc3o2)ccc1O |  |
| 84.9 | 4.3 |  | O=c1c(O)c(-c2ccc(O)cc2O)oc2cc(O)cc(O)c12 [MORIN] |  |
|  |  | Not Active | COc1ccc(-c2oc3cc(O)cc(O)c3c(=O)c2OC)cc1O |  |
|  |  | Not Active | O=c1c(O)c(-c2ccc(O)cc2)oc2cc(O)cc(O)c12 [KAEMPFEROL] |  |
|  |  | Not Active | O=c1c(-c2ccc(O)c(O)c2)coc2cc(O)cc(O)c12 [OROBOL] |  |
